We go through three compounds from ChEMBL document CHEMBL3621073, “Bile acid amphiphiles with tunable head groups as highly selective antitubercular agents” (Medchemcomm, 2014).

Activity calls are given as the source filed them. No cut-off for these calls is given here.

Series [1] deals with Escherichia coli. The series is described as follows: Antibacterial activity against Escherichia coli MTCC 443 after 12 hrs by microplate reader assay in presence of EDTA. Format: functional, organism-based.
Series [2] has as its system A549. The series is described as follows: Cytotoxicity against human A549 cells after 48 hrs by MTT assay. The settings on record: A549, 48 h. Format: cell-based.
Series [3] relates to Lipid bilayer. The series is described as follows: Binding affinity to PE:PG:LPS membrane assessed as membrane fluidity after 4 hrs.
A short description of series [4]: Binding affinity to PE:PG membrane assessed as membrane fluidity after 4 hrs.
Series [5] is described as follows: Therapeutic index, ratio of MHC50 for chicken RBC to MIC99 for Mycobacterium tuberculosis H37Rv. The settings on record: chicken red blood cells, read-out: TI.
Series [6] deals with Escherichia coli. The series is described as follows: Antibacterial activity against Escherichia coli MTCC 443 assessed as leakage of large amount of cytoplasmic contents by atomic force microscopic analysis. Format: functional, organism-based.
Series [7] concerns Mycobacterium tuberculosis. In words: Antimycobacterial activity against Mycobacterium tuberculosis H37Rv after 14 days by inverted microscopic analysis. Format: functional. The settings on record: 336 h.
A short description of series [8]: Binding affinity to PE:PG membrane assessed as dehydration of membrane after 4 hrs.
Series [9] concerns Escherichia coli. The series is described as follows: Antibacterial activity against Escherichia coli MTCC 443 assessed as micelle-like structures by atomic force microscopic analysis. Format: functional, organism-based.
Series [10] concerns Lipid bilayer. In words: Binding affinity to PE:PG:LPS membrane assessed as dehydration of membrane after 4 hrs.
Series [11] has as its system Lipid bilayer. In words: Binding affinity to PE:PG:TDM membrane assessed as membrane fluidity after 4 hrs.
Series [12] concerns Staphylococcus aureus. In words: Antibacterial activity against Staphylococcus aureus MTCC 737 after 12 hrs by microplate reader assay in presence of EDTA. Format: functional, organism-based.
In series [13] the test system is Lipid bilayer. The series is described as follows: Binding affinity to PE:PG:TDM membrane assessed as dehydration of membrane after 4 hrs.
Series [14] concerns Mycolicibacterium smegmatis. The series is described as follows: Antimycobacterial activity against Mycobacterium smegmatis str. MC2 155 after 6 to 96 hrs by inverted microscopic analysis relative to control. Format: functional.
Series [15] concerns Staphylococcus aureus. In words: Antibacterial activity against Staphylococcus aureus MTCC 737 after 12 hrs by microplate reader assay. The settings on record: MTCC 737, 12 h. Format: functional.
The next series concerns THP-1. In words: Cytotoxicity against human THP1 cells after 48 hrs by MTT assay. Format: cell-based. The settings on record: THP-1, 48 h.
Series [16] has as its system Escherichia coli. In words: Antibacterial activity against Escherichia coli MTCC 443 after 12 hrs by microplate reader assay. The settings on record: MTCC 443, 12 h. Format: functional.
The test system of series [17] is Escherichia coli. In words: Antibacterial activity against Escherichia coli MTCC 443 measured after 1 to 24 hrs by microplate reader assay. Format: functional, organism-based.
The subject of series [18] is Staphylococcus aureus. In words: Antibacterial activity against Staphylococcus aureus MTCC 737 assessed as effect on membrane permeabilization by using propidium iodide dye. Format: functional, organism-based.
Series [19] relates to A549. The series is described as follows: Cytotoxicity against human A549 cells assessed as effect on cell cycle phase at 100 uM by propidium iodide staining-based flow cytometry. The settings on record: a549, 100 µM.
The test system of series [20] is Mycolicibacterium smegmatis. The series is described as follows: Antimycobacterial activity against Mycobacterium smegmatis str. MC2 155 after 2 days by inverted microscopic analysis. Format: functional. The settings on record: str. MC2 155, 48 h.
For series [21], the system named is Escherichia coli. In words: Antibacterial activity against Escherichia coli MTCC 443 assessed as membrane surface indentations by atomic force microscopic analysis. Format: functional, organism-based.
Series [22] has as its system Escherichia coli. The series is described as follows: Antibacterial activity against Escherichia coli MTCC 443 assessed as effect on membrane permeabilization by using propidium iodide dye. Format: functional, organism-based.
The subject of series [23] is Staphylococcus aureus. In words: Antibacterial activity against Staphylococcus aureus MTCC 737 measured after 1 to 24 hrs by microplate reader assay. Format: functional, organism-based.
Series [24] in a line: Therapeutic index, ratio of MHC50 for sheep RBC to MIC99 for Mycobacterium tuberculosis H37Rv. The settings on record: sheep red blood cells, read-out: TI.
Series [25] relates to Mycobacterium tuberculosis. In words: Antimycobacterial activity against Mycobacterium tuberculosis H37Rv after 14 days by inverted microscopic analysis in presence of plasma. Format: functional. The settings on record: 336 h.
Series [26] has as its system Escherichia coli. In words: Antibacterial activity against Escherichia coli MTCC 443 assessed as effect membrane topology by atomic force microscopic analysis. Format: functional, organism-based.
For series [27], the system named is Staphylococcus aureus. In words: Antibacterial activity against Staphylococcus aureus MTCC 737 at 16 to 256 uM measured after 1 to 24 hrs by microplate reader assay. Format: functional, organism-based.
For series [28], the system named is Escherichia coli. The series is described as follows: Antibacterial activity against Escherichia coli MTCC 443 at 8 to 128 uM measured after 1 to 24 hrs by microplate reader assay. Format: functional, organism-based.
Series [29] concerns Mycolicibacterium smegmatis. In words: Antimycobacterial activity against Mycobacterium smegmatis str. MC2 155 after 2 days by inverted microscopic analysis in presence of plasma. The settings on record: str. MC2 155, 48 h. Format: functional.
The subject of series [30] is Mycolicibacterium smegmatis. In words: Antimycobacterial activity against Mycobacterium smegmatis str. MC2 155 assessed as effect on […] by using propidium iodide dye. Format: functional, organism-based.
Series [31] deals with Escherichia coli. In words: Antibacterial activity against Escherichia coli MTCC 443 assessed as effect membrane morphology by atomic force microscopic analysis. Format: functional, organism-based.

For `COC(=O)CC[C@@H](C)[C@H]1CC[C@H]2[C@@H]3[C@H](OC(=O)CN)C[C@@H]4C[C@H](OC(=O)CN)CC[C@]4(C)[C@H]3C[C@H](OC(=O)CN)[C@]12C.Cl.Cl.Cl`, the outcome (with Escherichia coli [1]; with Escherichia coli [6]; in series [8]; in the series with Escherichia coli [9]; in the series on Lipid bilayer [10]; with Staphylococcus aureus [12]) was Active. The result in the series with Lipid bilayer [13], in the series with Staphylococcus aureus [18], in the series on Escherichia coli [21] and with Escherichia coli [22] was Active. The IC50 with A549 [2] worked out at 75.9 µM; in the series with THP-1, 38.2 µM. Further, the outcome (in the series with Lipid bilayer [3]; in [4]; in the series on Lipid bilayer [11]; in series [14]) was inactive. The selectivity ratio in series [5] and in [24] was less than 20 throughout. In addition, the MIC99 in series [7] is more than 50 µM; in the series with Staphylococcus aureus [15] it was 64 µM; in the series with Escherichia coli [16], 32 µM; in [20], more than 50 µM. For the same compound, the results for the Activity result in the series with Escherichia coli [17], with A549 [19] and with Staphylococcus aureus [23] were “Dose-dependent effect”, “Non-toxic” and “Dose-dependent effect”, respectively.
In the case of `COC(=O)CC[C@@H](C)[C@H]1CC[C@H]2[C@@H]3[C@H](OC(=O)C[n+]4ccc(N(C)C)cc4)C[C@@H]4C[C@H](OC(=O)C[n+]5ccc(N(C)C)cc5)CC[C@]4(C)[C@H]3C[C@H](OC(=O)C[n+]3ccc(N(C)C)cc3)[C@]12C.[Cl-].[Cl-].[Cl-]`, the outcome (in the series with Escherichia coli [1]; with Lipid bilayer [11]; with Staphylococcus aureus [12]; in [30]) was Active. Further, the IC50 in the series on A549 [2] and in the series on THP-1 was more than 200 µM each time. In addition, the result (in the series with Lipid bilayer [3]; in series [4]; in the series on Escherichia coli [26]; with Lipid bilayer [13]; with Staphylococcus aureus [27]; in the series on Escherichia coli [28]) was inactive. In addition, the outcome in the series on Escherichia coli [31] was inactive. The selectivity ratio in series [5] and in series [24] was more than 160 in each case. Further, the MIC99 is 6.25 µM in series [25]; 6.25 µM in series [7]; 256 µM against Staphylococcus aureus [15]; more than 512 µM in the series with Escherichia coli [16]; 6.25 µM in [29]; 1.56 µM in series [20]. Besides, the “fold change (FC)” value in series [14] is 10000. Also, the Activity result in the series on A549 [19] was “Non-toxic”.
In the case of `COC(=O)CC[C@@H](C)[C@H]1CC[C@H]2[C@@H]3[C@H](OC(=O)C[n+]4ccccc4)C[C@@H]4C[C@H](OC(=O)C[n+]5ccccc5)CC[C@]4(C)[C@H]3C[C@H](OC(=O)C[n+]3ccccc3)[C@]12C.[Cl-].[Cl-].[Cl-]`, the IC50 in the series on A549 [2] and in the series with THP-1 was more than 200 µM throughout. The selectivity ratio in series [5] and in series [24] was more than 26 in each case. Also, the MIC99 in series [7] was 37.5 µM; against Staphylococcus aureus [15], more than 512 µM; against Escherichia coli [16], more than 512 µM; in [20], 3.12 µM. Moreover, the Activity entry in the series with A549 [19] is listed as “Non-toxic”.
